According to patent publication US20250186433A1, “ACSS2 INHIBITORS AND METHODS OF USE THEREOF” (EpiVario, Inc., priority 2017, published 2025):

Experiments:
[1] = target: T1, ACSS1 (Homo sapiens, UniProt Q9NUB1); assay: Acyl-CoA synthetases selectivity panel: ACSS1; format: biochemical; conditions: human recombinant protein, substrate acetate, AMP readout by HPLC; read-out: HPLC based activity assays IC50 (UM) ACSS1
T1 construct: purchased Cusabio, China
T1 sequence (Q9NUB1 38-689): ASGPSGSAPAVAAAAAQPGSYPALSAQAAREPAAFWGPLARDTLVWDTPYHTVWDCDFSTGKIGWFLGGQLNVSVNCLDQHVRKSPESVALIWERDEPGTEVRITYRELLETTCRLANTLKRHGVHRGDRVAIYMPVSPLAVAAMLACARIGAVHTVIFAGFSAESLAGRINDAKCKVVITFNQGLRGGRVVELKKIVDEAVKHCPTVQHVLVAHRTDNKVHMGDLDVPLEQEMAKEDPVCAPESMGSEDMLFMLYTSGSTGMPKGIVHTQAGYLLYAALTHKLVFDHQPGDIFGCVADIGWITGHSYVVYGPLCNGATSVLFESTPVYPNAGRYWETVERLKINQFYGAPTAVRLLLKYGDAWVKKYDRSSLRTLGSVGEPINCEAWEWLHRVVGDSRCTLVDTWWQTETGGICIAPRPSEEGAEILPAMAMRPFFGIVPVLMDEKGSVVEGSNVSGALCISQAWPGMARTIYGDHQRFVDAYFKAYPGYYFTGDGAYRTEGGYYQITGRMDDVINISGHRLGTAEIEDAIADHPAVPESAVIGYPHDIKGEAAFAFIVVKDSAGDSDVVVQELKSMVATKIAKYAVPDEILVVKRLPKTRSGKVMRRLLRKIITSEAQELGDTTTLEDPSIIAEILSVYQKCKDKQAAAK
Excerpt: (§1) The biochemical assays for testing the selectivity of the compounds according to this invention, were done using human recombinant proteins (Cusabio, China). The readout of the assays was AMP levels, the […] of the reactions, by HPLC method. The acyl substrates (Sigma-Aldrich) of the assays were as followed: ACSS1/ACSS2—Acetate, AACS-Acetoacetyl, ACSF2—Octanoate and ACSL5—Palmitate. The protein in this panel include ACSS1, the closest homolog of ACSS2, in addition to representative short/medium/long chain acyl-CoA syntatases.

[2] = target: T2, AACS (Homo sapiens, UniProt Q86V21); assay: Acyl-CoA synthetases selectivity panel: AACS; format: biochemical; conditions: human recombinant protein, substrate acetoacetyl, AMP readout by HPLC; read-out: HPLC based activity assays IC50 (UM) AACS
T2 construct: purchased Cusabio, China
T2 sequence (Q86V21 1-672): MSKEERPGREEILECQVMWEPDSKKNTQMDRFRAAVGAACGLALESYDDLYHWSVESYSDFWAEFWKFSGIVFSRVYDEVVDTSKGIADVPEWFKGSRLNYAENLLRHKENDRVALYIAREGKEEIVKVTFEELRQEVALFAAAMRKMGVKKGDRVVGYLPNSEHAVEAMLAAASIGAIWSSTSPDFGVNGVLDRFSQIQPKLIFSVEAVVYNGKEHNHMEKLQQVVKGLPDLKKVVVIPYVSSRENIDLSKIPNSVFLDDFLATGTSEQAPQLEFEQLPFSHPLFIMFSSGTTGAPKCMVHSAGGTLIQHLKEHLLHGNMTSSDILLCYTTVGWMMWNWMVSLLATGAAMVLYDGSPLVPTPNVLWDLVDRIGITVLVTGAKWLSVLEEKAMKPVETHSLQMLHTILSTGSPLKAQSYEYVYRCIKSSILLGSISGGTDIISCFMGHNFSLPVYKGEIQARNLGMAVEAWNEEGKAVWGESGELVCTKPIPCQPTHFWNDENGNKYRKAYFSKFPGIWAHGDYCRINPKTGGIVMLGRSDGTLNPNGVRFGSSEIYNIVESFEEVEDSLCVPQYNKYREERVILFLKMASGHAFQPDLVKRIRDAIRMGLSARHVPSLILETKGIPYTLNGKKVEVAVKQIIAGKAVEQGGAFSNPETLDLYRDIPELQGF
Excerpt: as §1

[3] = target: T3, ACSF2 (Homo sapiens, UniProt Q96CM8); assay: Acyl-CoA synthetases selectivity panel: ACSF2; format: biochemical; conditions: human recombinant protein, substrate octanoate, AMP readout by HPLC; read-out: HPLC based activity assays IC50 (UM) ACSF2
T3 construct: purchased Cusabio, China
T3 sequence (Q96CM8 42-615): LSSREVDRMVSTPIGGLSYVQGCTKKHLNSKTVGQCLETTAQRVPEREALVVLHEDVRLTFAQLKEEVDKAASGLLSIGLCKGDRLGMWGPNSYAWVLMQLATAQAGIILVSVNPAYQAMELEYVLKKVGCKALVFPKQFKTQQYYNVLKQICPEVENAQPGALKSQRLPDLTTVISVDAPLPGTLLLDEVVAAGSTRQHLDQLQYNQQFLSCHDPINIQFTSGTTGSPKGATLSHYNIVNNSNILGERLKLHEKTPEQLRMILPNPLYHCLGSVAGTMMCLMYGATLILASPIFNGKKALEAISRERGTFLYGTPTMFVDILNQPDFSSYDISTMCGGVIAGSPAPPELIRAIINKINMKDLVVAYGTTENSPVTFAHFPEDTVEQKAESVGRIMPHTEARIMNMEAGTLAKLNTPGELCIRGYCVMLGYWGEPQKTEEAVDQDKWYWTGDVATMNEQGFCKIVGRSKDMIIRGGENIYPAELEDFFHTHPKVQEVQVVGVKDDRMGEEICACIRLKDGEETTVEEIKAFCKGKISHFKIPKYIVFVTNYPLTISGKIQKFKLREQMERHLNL
Excerpt: as §1

[4] = target: T4, ACSL5 (Homo sapiens, UniProt Q9ULC5); assay: Acyl-CoA synthetases selectivity panel: ACSL5; format: biochemical; conditions: human recombinant protein, substrate palmitate, AMP readout by HPLC; read-out: HPLC based activity assays IC50 (UM) ACSL5
T4 construct: purchased Cusabio, China
T4 sequence (Q9ULC5 1-683): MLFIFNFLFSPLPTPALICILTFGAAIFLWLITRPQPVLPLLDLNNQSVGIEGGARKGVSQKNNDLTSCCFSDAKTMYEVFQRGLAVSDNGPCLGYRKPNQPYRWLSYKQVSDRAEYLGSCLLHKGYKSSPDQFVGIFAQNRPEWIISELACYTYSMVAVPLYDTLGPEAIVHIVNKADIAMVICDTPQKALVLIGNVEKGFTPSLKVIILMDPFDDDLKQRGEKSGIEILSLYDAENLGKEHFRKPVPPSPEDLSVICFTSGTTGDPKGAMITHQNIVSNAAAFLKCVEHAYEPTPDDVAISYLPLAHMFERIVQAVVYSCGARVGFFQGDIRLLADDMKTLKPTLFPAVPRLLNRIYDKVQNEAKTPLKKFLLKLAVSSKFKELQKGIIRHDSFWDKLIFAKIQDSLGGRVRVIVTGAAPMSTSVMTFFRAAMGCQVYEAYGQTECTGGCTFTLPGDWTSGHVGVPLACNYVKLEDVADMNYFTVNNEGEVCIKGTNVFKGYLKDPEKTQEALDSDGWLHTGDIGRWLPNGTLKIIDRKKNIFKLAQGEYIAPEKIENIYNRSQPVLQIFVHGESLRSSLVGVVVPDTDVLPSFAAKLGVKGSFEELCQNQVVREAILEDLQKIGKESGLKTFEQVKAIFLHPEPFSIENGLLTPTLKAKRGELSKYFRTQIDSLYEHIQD
Excerpt: as §1

[5] = target: T5, ACSS2 (Homo sapiens, UniProt Q9NR19); assay: Acyl-CoA synthetases selectivity panel: ACSS2; format: biochemical; set-up: purchased Cusabio, China; conditions: human recombinant protein, substrate acetate, AMP readout by HPLC; read-out: HPLC based activity assays IC50 (UM) ACSS2
T5 sequence (Q9NR19 whole entry): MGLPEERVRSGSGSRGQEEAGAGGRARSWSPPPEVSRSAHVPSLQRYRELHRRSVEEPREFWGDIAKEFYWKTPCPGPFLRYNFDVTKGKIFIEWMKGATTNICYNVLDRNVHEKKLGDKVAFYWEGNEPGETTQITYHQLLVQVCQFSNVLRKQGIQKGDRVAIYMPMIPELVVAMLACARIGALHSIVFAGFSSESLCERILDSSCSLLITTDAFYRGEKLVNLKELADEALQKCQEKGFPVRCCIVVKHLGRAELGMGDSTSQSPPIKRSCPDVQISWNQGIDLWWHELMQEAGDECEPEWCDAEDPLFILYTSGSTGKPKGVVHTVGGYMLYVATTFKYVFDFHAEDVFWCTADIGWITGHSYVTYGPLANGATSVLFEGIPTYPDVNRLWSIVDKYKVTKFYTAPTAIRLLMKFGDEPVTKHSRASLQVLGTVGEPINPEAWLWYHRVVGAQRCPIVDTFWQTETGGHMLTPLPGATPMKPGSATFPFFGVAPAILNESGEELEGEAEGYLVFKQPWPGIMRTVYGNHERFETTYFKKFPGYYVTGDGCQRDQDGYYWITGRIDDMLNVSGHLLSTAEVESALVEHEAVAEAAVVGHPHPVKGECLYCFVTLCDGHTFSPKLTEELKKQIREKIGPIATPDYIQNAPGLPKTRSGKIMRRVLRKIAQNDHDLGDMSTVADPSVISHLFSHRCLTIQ
Excerpt: as §1

[6] = target: T5, ACSS2; assay: cell-based
Description: The cellular activity of ACSS2 was based on tracing the incorporation of carbons from ^13C-Acetate into fatty-acids.
BT474/MDA-MB-468 cells growing in DMEM+25 mM D-glucose+1 mM sodium pyruvate+10% FBS+2 mM glutamine were plated in 12-well plates at 0.4×10^6 cells/well. The cells were then incubated at CO2 incubator for 24 hrs at hypoxic conditions (1% O2) before treated with compounds. At day 2, the medium was replaced to DMEM medium containing 15 mM Glucose, 1 mM Pyruvate, 0.65 mM Glutamine, 1% Dialyzed serum, 3.5 ug/ml Biotin, 0.2 mM ^13C-Acetate and various concentrations of the compounds. The cells were incubated for 5 hours at CO2 incubator in hypoxic conditions (1% O2). At the end of the 5 hours' incubation, the cells were washed twice with cold PBS, harvested in 1 ml PBS and transfer into V-shaped HPLC glass vials and centrifuge for 10 min at 600 g at 4 C. The supernatant was removed, and the cells' pellets were stored at −80° C. until taken for saponification.
The cells pellets were resuspended with 0.5 ml of the 90% Methanol, 10% H2O, 0.3M NaOH mixture and incubated at 80° C. for 60 min. Following the incubation, 50 μl formic acid and 0.4 ml hexane were added and the mixture was vortexed for 2 minutes. The vials were left few minutes for phases separation and then 200 μl of the top hexane phase extracted to a new glass vial. The hexane was dried under nitrogen and reconstituted in 100 μl of Methanol: Acetonitrile 5:3 mixture. The solution transferred to Eppendorf tubes, spun down at 17000G for 20 min and transferred to LC-MS vials.
The analysis was performed with Thermo Q Exactive mass spectrometer with HESI probe and Dionex Ultimate 3000 UHPLC system. The separations were performed on Phenomenex Kintex 2.6u XB-C18 100A 150×2.10 mm column by injecting 5 ul of each sample. The chromatography started with a linear gradient from 85% to 100% of organic solvent (Methanol: Acetonitrile 1:1) versus 10 mM Ammonium Acetate buffer pH 4.7 for 3.5 minutes, followed by 4.5 minutes of isocratic 100% organic solvent and then 3 minutes of isocratic initial conditions, at a flow rate of 0.3 ul/min. The MS source conditions that were used: capillary temperature 325° C., sheath flow 25, aux flow 15, spray voltage 3.8 kV, aux temperature 300° C. The data collected from Negative ion mode at resolution of 70000 at Full-MS mode in 75-1000 m/z range.
The analysis of ^13C acetate incorporation into fatty acids (palmitate, myristate and stearate) performed on TraceFinder 3.2.512.0. The negative control areas and ^13C isotopic theoretical natural abundance were subtracted from the samples areas. Total ^13C incorporation for each fatty-acid (palmitate, myristate and stearate) was calculated and presented as percentage of the total amount.

[7] = target: T6, ACSS2 (Mus musculus, UniProt Q9QXG4); assay: PK-PD study: inhibition of 13C incorporation into fatty-acid (palmitate) in vivo; conditions: C57BL/6J mice, 50 mg/kg IP, 13C-ETOH PO at 1 h, plasma at 3 h, read-out: inhibition of 13C-Acetate incorporation into fatty-acids (palmitate)
T6 construct: from tissue; host or cells: whole animal, C57BL/6J mice; plasma palmitate read out
T6 sequence (Q9QXG4 whole entry): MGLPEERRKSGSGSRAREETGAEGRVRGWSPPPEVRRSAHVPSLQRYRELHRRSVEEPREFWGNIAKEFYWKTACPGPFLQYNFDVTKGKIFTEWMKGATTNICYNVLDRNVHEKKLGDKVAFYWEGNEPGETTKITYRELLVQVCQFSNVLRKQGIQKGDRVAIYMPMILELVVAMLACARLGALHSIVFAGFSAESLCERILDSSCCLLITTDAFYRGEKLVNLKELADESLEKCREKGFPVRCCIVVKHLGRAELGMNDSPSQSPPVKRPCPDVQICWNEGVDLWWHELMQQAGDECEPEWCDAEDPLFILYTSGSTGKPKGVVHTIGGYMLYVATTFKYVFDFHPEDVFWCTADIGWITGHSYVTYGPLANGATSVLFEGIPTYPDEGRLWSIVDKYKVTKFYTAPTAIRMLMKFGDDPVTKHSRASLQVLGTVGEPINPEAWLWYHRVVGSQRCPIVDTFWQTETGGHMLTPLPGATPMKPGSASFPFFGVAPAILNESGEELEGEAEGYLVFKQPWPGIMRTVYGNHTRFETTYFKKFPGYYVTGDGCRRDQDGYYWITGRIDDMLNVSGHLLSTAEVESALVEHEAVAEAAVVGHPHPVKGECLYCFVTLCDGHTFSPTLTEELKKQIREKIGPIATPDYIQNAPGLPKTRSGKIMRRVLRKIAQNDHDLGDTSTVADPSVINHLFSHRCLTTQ
Description: Overnight fasted Female C57BL/6J mice (3n/group) were dosed at time=0 h with the indicated compound at 50 mg/kg IP (vehicle: 20% Solutol, 80% 0.2M Phosphate buffer pH 7.0). At time 1 h, 13C-ETOH (2.25 gr/kg 13C-ETOH dissolved in saline to a total volume of 10 ml/kg) were administrated by PO. At time 3 h plasma samples were taken for Fatty-acid analysis by Mass-spectrometry. The incorporation of ^13C into palmitate was done by Mass-spectrometry after saponification of the samples and the percent incorporation of ^13C was calculated.

[8] = system: MDA-MB-468 breast cancer cells xenograft; assay: In-vivo efficacy study in MDA-MB-468 breast cancer cells xenograft; conditions: 100 mg/kg orally once daily; female NMRI nude mice
Description: An in-vivo efficacy study was carried out by Charles-River Laboratories at the Freiburg, Germany site.
Tumor fragments from Breast cancer cell line MDA-MB-468 passaged as subcutaneous xenograft were subcutaneously implanted into female NMRI nude mice (Crl:NMRI-Foxnlnu). The animals were randomized into groups (n=10) when tumors volume reached 50 to 250 mm3. […] Body weights and tumor volume [mm3] by caliper were measured twice weekly.

[9] = target: T5, ACSS2; assay: biochemical
Description: The assay is based on a coupling reaction with Pyrophosphatase: ACSS2 is converting ATP+CoA+Acetate=>AMP+pyrophosphate+Acetyl-CoA (Ac-CoA). Pyrophosphatase converts pyrophosphate, a product of the ACSS2 reaction, to phosphate which can be detected by measuring the absorbance at 620 nm after incubation with the Biomol green reagent (Enzo life Science, BML-AK111).
At the end of the reaction, Biomol Green was added for 30 minutes at RT and the activity was measured by reading the absorbance at 620 nm.

Structure (SMILES)	IC50 [1] [µM]	IC50 [2] [µM]	IC50 [3] [µM]	IC50 [4] [µM]	IC50 [5] [µM]	IC50 [6] [µM]	further results
CC1=NN(c2ccccc2)C(=O)C1C(=O)Nc1cccc(-c2ccco2)c1 (stereo not shown) [compound 108]	10 to 100	84	36	76	< 0.001	–	–
CC1=NN(c2ccccc2)C(=O)C1C(=O)Nc1cccc(C(C)(F)F)c1 (stereo not shown) [compound 141]	10 to 100	149	160	> 100	0.001 to 0.01	–	–
CC(=O)Cc1cccc(NC(=O)C2C(=O)N(c3ccccc3)N=C2C)c1 (stereo not shown) [compound 145]	–	–	–	–	–	0.1 to 1	–
COC(=O)c1cccc(N2N=C(C)C(C(=O)Nc3cccc(-c4cnccn4)c3)C2=O)c1 (stereo not shown) [compound 164]	–	–	–	–	–	0.1 to 1	–
CC1=NN(c2cccc(C(F)(F)F)c2)C(=O)C1C(=O)Nc1cccc(-c2cnccn2)c1 (stereo not shown) [compound 166]	–	–	–	–	–	> 1	–
COC(=O)c1cccc(N2N=C(C)C(C(=O)Nc3cccc(-c4ncc[nH]4)c3)C2=O)c1 (stereo not shown) [compound 167, Methyl 3-(4-((3-(1H-imidazol-2-yl)phenyl)carbamoyl)-3-methyl-5-oxo-4,5-dihydro-1H-pyrazol-1-yl)benzoate]	–	–	–	–	–	0.1 to 1	–
CC1=NN(c2ccccc2)C(=O)C1C(=O)Nc1cccc(C(=O)N(C)C)c1 (stereo not shown) [compound 220]	–	–	–	–	–	> 1	–
COc1ccc(N2N=C(C)C(C(=O)Nc3cccc(C(C)(F)F)c3)C2=O)cn1 (stereo not shown) [compound 242, N-(3-(1,1-difluoroethyl)phenyl)-1-(6-methoxypyridin-3-yl)-3-methyl-5-oxo-4,5-dihydro-1H-pyrazole-4-carboxamide]	–	–	–	–	–	–	inhibition at 50 mg/kg [7]: 84%
CC1=NN(c2ccc(C(F)(F)F)cc2)C(=O)C1C(=O)Nc1cccc(C(C)(F)F)c1 (stereo not shown) [compound 264, N-(3-(1,1-difluoroethyl)phenyl)-3-methyl-5-oxo-1-(4-(trifluoromethyl)phenyl)-4,5-dihydro-1H-pyrazole-4-carboxamide]	1 to 10	52	43	115	0.001 to 0.01	–	–
COc1ccc(N2N=C(C)C(C(=O)Nc3cccc(-c4ccco4)c3)C2=O)cc1 (stereo not shown) [compound 266, N-(3-(furan-2-yl)phenyl)-1-(4-methoxyphenyl)-3-methyl-5-oxo-4,5-dihydro-1H-pyrazole-4-carboxamide]	10 to 100	64	51	35	< 0.001	–	–
COC(=O)c1cccc(N2N=C(C)C(C(=O)Nc3cccc(-c4ccco4)c3)C2=O)c1 (stereo not shown) [compound 269, methyl 3-(4-((3-(furan-2-yl)phenyl)carbamoyl)-3-methyl-5-oxo-4,5-dihydro-1H-pyrazol-1-yl)benzoate]	10 to 100	19	28	45	< 0.001	–	–
CC1=NN(c2ccc(OC(F)(F)F)cc2)C(=O)C1C(=O)Nc1cc(C(C)(F)F)cs1 (stereo not shown) [compound 296, N-(4-(1,1-difluoroethyl)thiophen-2-yl)-3-methyl-5-oxo-1-(4-(trifluoromethoxy)phenyl)-4,5-dihydro-1H-pyrazole-4-carboxamide]	–	–	–	–	–	–	tumor growth in MDA-MB-468 xenograft model [8]: inhibits tumor growth
CCC(F)(F)c1cccc(NC(=O)C2C(=O)N(c3ccc(OC)c(-c4cccc(C)n4)c3)N=C2C)c1 (stereo not shown) [compound 536, N-(3-(1,1-difluoropropyl)phenyl)-1-(4-methoxy-3-(6-methylpyridin-2-yl)phenyl)-3-methyl-5-oxo-4,5-dihydro-1H-pyrazole-4-carboxamide]	–	–	–	–	–	–	IC50 [9]: 0.01 to 6 nM
CCC(F)(F)c1cccc(NC(=O)C2C(=O)N(c3ccc(OC)c(-c4cc(C)ccn4)c3)N=C2C)c1 (stereo not shown) [compound 537, N-(3-(1,1-difluoropropyl)phenyl)-1-(4-methoxy-3-(4-methylpyridin-2-yl)phenyl)-3-methyl-5-oxo-4,5-dihydro-1H-pyrazole-4-carboxamide]	–	–	–	–	–	–	IC50 [9]: 0.01 to 6 nM
